Results taken from US20020076401A1, “Heat shock protein inducing factor and method for its in-situ generation from an inactive form” (priority 2000, published 2002).
Where a SMILES comes first, the peptide text is derived from it. The star is where a group is joined. Cbz = O=C(OCc1ccccc1)*

Tests used:
[1] = test system: Hsp72 expression in old cells; conditions: cited from earlier work
[2] = test system: HSP-inducing factor in serum; assay: In-vivo activation of HSP-inducing factor by single injection of periodate; design: species or system mice
Description: (§1) Aliquots of serum, treated as described above, were added to cultures of CH1 cells and cultures of primary human fibroblasts at 20% of final volume. Cultures were incubated for 16 hours at regular tissue culture conditions (37° C., 5% CO2). Following the incubation, cells were collected, washed, and lysed. Lysates were subjected to polyacrylamide gel electrophoresis (PAGE), transferred to nitrocellulose membrane (Awestem transfer≅), and Hsp70 was detected by immunoblotting with Hsp70-specific monoclonal antibody (Spa810) and visualized by ECL technique.
Mice were injected with either intraperitoneally (IP) or subcutaneously (SQ) with 0.2 ml of sodium periodate solution in physiological saline, or with 0.2 ml of physiological saline alone.
Four different concentrations of sodium periodate were used: 15 mM, 30 mM, 60 mM, and 120 mM. In parallel experiments the same concentrations of periodate but prequenched with potassium borohydride as described above were injected. After 2 hours blood samples were collected from tail and serum was used in the assay described above.

[3] = test system: HSP-inducing factor in blood serum and ascites fluid; assay: In-vitro activation of HSP-inducing factor by sodium periodate; format: cell-based, mouse
Description: To activate HSP-inducing factor, 200 mM solution of sodium periodate in physicological saline (solutions of sodium periodate in water or in 50 mM sodium acetate pH 5.0 work equally well) was added to aliquots of serum or of ascites fluid to final concentration of 1 mM to 20 mM (at these concentrations and in conditions outlined below, sodium periodate oxidizes only sugar groups). Mixtures were incubated at room temperature in darkness for 1 hour. Following the incubation sodium periodate was quenched by the addition of solution of potassium borohydride in physiological saline to a final concentration equal to 1.5 times excess of the concentration of sodium periodate. The completeness of quenching was verified by using potassium iodide-starch test paper.
as §1

[4] = test system: HSP-inducing factor in serum; assay: In-vivo activation of HSP-inducing factor by prolonged release of periodate; design: species or system mouse; conditions: 500 mM released over 72 hours, SQ pump; detected after 3 hours and maintained
Description: In another type of experiment […] of either 500 mM solution of sodium periodate in physiological saline or physiological saline alone were released over a period of 72 hours using microosmotic pumps implanted SQ. In parallel experiments the same concentration of periodate but prequenched with potassium borohydride as described above was administered. After different time periods blood samples were collected from tail and serum was used in the assay described above.

[5] = test system: Hsp70-inducing activity in serum; assay: Periodate treatment of serum from differently stressed mice; format: cell-based; conditions: in vitro periodate treatment

**Q.** Which toxicity [1] does the source give for `CC(C)C[C@@H](C=O)NC(=O)[C@H](CC(C)C)NC(=O)[C@H](CC(C)C)NC(=O)OCc1ccccc1` [MG132] (Cbz-Leu-Leu-Leu-aldehyde) here?
**A.** Its toxicity is “highly toxic”.

**Q.** And the Hsp72 synthesis ([1]; old cells)?
**A.** Its Hsp72 synthesis is “induces Hsp72 synthesis via an alternative heat shock transcription factor HSF2”.

**Q.** For `[O-][I+3]([O-])([O-])O` [sodium periodate], which “levels of HSP in cell lysates relative to cells incubated with untreated serum” value ([2]; maximal sodium periodate concentration, single injection) is on record?
**A.** Its value is “about 10 times”.

**Q.** And the “levels of HSP-inducing factor in serum” value ([2]; mice, IP or SQ 0.2 ml of 15-120 mM, 2 hours)?
**A.** Its value is “substantially increased levels of HSP-inducing factor”.

**Q.** What about the “levels of HSP-inducing factor versus periodate concentration” value ([2]; mice, single injection) of the same compound?
**A.** The value was “directly proportional to the concentrations of periodate used”.

**Q.** What about the “levels of active factor versus periodate concentration” value ([3]; assessed by Hsp70 in cell lysates) of the same compound?
**A.** Its value is “directly proportional to concentrations of sodium periodate used”.

**Q.** And the “activation of HSP-inducing factor” value ([3]; blood serum and ascites fluid, 1 mM to 20 mM, 1 hour, room temperature)?
**A.** Its value is “strongly activated”.

**Q.** What about the “Hsp70 in cell lysate relative to cells incubated with untreated serum” value ([3]; maximal sodium periodate concentration, serum at 20%, 16 hours) of the same compound?
**A.** Its value is “at least 50 times”.

**Q.** What about the “levels of HSP-inducing factor in serum” value [4] of the same compound?
**A.** The value was “Substantially increased levels of HSP-inducing factor”.

**Q.** And the “Hsp70-inducing activity of serum from differently stressed mice after periodate treatment” value [5]?
**A.** The value was “further increased in all samples to a level identical to that seen in periodate-activated serum from non-stressed mice”.
